The results in this text go back to patent US9096593B2, “Compounds and methods for kinase modulation, and indications therefor” (Plexxikon Inc., priority 2009, dated 2015).

Where two headings read alike, the source gives them in different places.

One data set addresses Fms kinase (Homo sapiens (Human), UniProt P07333). In words: Fms kinase biochemical activity assay (AlphaScreen, biotin-(E4Y)10 phosphorylation). The method, boiled down:
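Recombinant human Fms phosphorylating 30 nM biotin-(E4Y)10 with 100 μM ATP (1 ng/well enzyme) in Hepes pH 7.5 buffer with Mg2+/Mn2+, 5% DMSO, 20 min at 30 °C. Phosphotyrosine detected by AlphaScreen streptavidin donor/PY20 acceptor beads; IC50 from signal versus compound concentration.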
(Alpha assays give light when donor and acceptor beads are brought close together.)

The target of another data set is c-Kit kinase (Homo sapiens (Human), UniProt P10721). The experiment in a line: c-Kit kinase biochemical activity assay (AlphaScreen, biotin-(E4Y)10 phosphorylation). As to the method: In one assay the biochemical activity IC50 values are determined with respect to inhibition of c-Kit kinase activity, where inhibition of phosphorylation of a peptide substrate is measured as a function of compound concentration. Compounds to be tested are dissolved in DMSO to a concentration of 20 mM. These are diluted 30 μL into 120 μL of DMSO (4 mM) and 1 μL is added to an assay plate. These are then serially diluted […] (50 μL to 100 μL DMSO) for a total of 8 points. Plates are prepared such that each kinase reaction is 20 μL in 1× kinase buffer (25 mM HEPES, pH 7.5, 2 mM MgCl2, 2 mM MnCl2, 0.01% Tween-20, 1 mM DTT, 0.01% BSA), 5% DMSO and 100 μM ATP. Substrate is 30 nM biotin-(E4Y)10 (Millipore). C-kit kinase (obtained from Millipore (#14-559) or is prepared as described in U.S. Patent Application Publication Number 2009/0076046, the disclosure of which is hereby incorporated by reference as it relates to this assay) is at 0.75 ng per sample. After incubation of the kinase reaction for 1 hour at room temperature, 5 μL of donor beads (Streptavidin coated beads (Perkin Elmer Life Science) final concentration 10 μg/mL) in stop buffer (25 mM Hepes pH 7.5, 100 mM EDTA, 0.01% BSA) is added, the sample is mixed and incubated for 20 minutes at room temperature before adding 5 μL of acceptor beads (PY20 coated beads (Perkin Elmer Life Science) final concentration 10 μg/mL) in stop buffer. The samples are incubated for 60 minutes at room temperature and the signal per well is read on Envision reader. […] The signal vs. compound concentration is used to determine the IC50.
Sequence of c-Kit kinase (P10721 26-976): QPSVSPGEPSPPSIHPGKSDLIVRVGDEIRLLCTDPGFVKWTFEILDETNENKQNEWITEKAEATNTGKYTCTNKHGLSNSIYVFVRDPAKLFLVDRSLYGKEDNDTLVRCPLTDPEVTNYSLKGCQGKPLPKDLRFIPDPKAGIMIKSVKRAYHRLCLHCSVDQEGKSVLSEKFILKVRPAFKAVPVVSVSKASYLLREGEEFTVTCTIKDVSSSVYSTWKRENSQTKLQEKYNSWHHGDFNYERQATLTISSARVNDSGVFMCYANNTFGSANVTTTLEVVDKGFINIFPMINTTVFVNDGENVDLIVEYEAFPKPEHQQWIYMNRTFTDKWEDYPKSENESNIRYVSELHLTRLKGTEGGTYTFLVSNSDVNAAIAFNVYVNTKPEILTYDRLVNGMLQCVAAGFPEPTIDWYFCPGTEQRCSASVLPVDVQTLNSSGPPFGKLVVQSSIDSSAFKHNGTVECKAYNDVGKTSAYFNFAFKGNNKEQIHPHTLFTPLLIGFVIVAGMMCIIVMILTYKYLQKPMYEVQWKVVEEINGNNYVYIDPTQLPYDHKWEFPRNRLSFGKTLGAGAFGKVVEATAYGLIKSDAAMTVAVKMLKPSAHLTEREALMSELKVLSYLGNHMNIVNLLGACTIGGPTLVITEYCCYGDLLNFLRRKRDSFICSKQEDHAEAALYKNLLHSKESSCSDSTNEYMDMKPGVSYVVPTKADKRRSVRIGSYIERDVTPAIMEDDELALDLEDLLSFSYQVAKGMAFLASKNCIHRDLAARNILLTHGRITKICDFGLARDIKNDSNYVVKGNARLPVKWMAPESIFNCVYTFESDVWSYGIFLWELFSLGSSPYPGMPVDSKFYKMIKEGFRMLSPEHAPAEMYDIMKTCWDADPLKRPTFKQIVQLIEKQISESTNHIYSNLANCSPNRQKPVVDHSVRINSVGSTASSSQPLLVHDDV

Another data set concerns the target CYP2C9 (Homo sapiens (Human), UniProt P11712). The experiment in a line: CYP enzyme inhibition, fluorescent substrate. The protocol: (§1) CYP (Cytochrome P450) enzymes are the major drug metabolizing enzymes present in the liver. The inhibition of CYP enzyme activity (IC50) for each of CYP1A2, CYP2C19, CYP2C9, CYP2D6, CYP3A4(BFC) and CYP3A4(BQ) is determined for compounds, where inhibition of metabolism of a known substrate leads to a decrease in the fluorescence of the metabolized product. The fluorescence of the product is monitored as a function of compound concentration.
(§2) Compounds are dissolved in DMSO to a concentration of 100 mM. These are diluted 1 μL into 82 μL of acetonitrile. An 11 μL aliquot of this solution is then added to 204 μL of cofactor mix (1.3% NADPH Regeneration system Solution A, 1.04% NADPH Regeneration system Solution B from BD Biosciences, 5% acetonitrile and 0.05% DMSO). These are then serially diluted 1:1 (160 μL to 160 μL co-factor mix) for a total of 10 points. A 10 μL aliquot of this final mixture is dispensed into 384 well assay plates and incubated for 10 minutes at 37° C. Enzyme and substrate mix (10 μL; […] CYP1A2/5 μM CEC; 1.0 μmol CYP2C9/75 μM MFC; […] CYP2C19/25 μM CEC; 1.5 μmol CYP2D6/1.5 μM AMMC; 1.0 μmol CYP3A4/50 μM BFC; or 1.0 μmol CYP3A4/40 μM BQ) is added to these assay plates. Assay plates are incubated at 37° C. (CYP1A2-15 min; CYP2C9-45 min; CYP2C19, 2D6 and 3A4-30 min) and read in a Tecan Safire 2 plate reader (CYP1A2, 2C19 and 3A4 409 ex/460 em; CYP2C9 and 2D6409 ex/530 em). The signal versus compound concentration is used to determine the IC50. The enzymes and substrates for this assay are obtained from BD Biosciences.

A further data set has as its target CYP3A4(BQ) (Homo sapiens (Human), UniProt P08684). In words: CYP enzyme inhibition, fluorescent substrate. As to the method: as §1, §2
The next data set addresses CYP3A4(BFC) (Homo sapiens (Human), UniProt P08684). In words: CYP enzyme inhibition, fluorescent substrate. The protocol:
as §1, §2

The target in a further data set is CYP1A2 (Homo sapiens (Human), UniProt P05177). In words: CYP enzyme inhibition, fluorescent substrate. As to the method: as §1, §2
Sequence of CYP1A2 (P05177 whole entry): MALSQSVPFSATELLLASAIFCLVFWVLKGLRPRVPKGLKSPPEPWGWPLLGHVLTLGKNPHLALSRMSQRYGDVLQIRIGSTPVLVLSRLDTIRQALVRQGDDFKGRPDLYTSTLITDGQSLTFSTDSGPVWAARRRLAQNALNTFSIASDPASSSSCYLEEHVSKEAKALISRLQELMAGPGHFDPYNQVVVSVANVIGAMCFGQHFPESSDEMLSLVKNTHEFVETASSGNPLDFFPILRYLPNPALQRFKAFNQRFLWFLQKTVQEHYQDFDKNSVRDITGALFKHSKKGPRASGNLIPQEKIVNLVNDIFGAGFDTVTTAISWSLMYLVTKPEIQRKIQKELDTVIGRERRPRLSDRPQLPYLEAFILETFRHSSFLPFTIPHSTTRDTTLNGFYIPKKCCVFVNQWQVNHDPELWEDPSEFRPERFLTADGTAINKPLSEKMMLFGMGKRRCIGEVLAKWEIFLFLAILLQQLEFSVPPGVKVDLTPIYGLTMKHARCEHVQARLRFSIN
In another data set the target is CYP2C19 (Homo sapiens (Human), UniProt P33261). In words: CYP enzyme inhibition, fluorescent substrate. As to the method: as §1, §2
Sequence of CYP2C19 (P33261 whole entry): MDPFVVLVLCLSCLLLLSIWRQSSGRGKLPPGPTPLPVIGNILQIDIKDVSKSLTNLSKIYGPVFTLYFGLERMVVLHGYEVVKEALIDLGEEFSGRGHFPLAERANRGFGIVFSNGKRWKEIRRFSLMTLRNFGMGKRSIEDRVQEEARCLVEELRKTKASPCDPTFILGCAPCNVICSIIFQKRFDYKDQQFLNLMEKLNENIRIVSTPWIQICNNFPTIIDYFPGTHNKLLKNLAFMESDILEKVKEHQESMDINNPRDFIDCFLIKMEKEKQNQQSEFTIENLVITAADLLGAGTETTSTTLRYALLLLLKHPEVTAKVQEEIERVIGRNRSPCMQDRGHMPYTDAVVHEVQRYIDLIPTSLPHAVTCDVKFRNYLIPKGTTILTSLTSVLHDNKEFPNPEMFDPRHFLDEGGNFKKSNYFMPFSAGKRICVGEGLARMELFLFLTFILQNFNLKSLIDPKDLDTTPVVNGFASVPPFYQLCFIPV
A further data set concerns the target CYP2D6 (Homo sapiens (Human), UniProt P10635). The experiment in a line: CYP enzyme inhibition, fluorescent substrate. Conditions: read-out: Cyp IC50 (μM) 2D6. As to the method: as §1, §2
Setting [1] is: read-out: Biochemical activity (IC50 μM) Fms.
Where [2] appears, read: read-out: Cyp IC50 (μM) 3A4(BQ), BQ substrate.
[3] abbreviates: read-out: Cyp IC50 (μM) 3A4(BFC), BFC substrate.
Setting [4] is: 100 μM ATP, read-out: Biochemical (IC50 μM) Fms.
The mark [5] stands for this setting: human, CYP2C9 enzyme (BD Biosciences), 45 min.

Sequence of Fms kinase (P07333 20-972): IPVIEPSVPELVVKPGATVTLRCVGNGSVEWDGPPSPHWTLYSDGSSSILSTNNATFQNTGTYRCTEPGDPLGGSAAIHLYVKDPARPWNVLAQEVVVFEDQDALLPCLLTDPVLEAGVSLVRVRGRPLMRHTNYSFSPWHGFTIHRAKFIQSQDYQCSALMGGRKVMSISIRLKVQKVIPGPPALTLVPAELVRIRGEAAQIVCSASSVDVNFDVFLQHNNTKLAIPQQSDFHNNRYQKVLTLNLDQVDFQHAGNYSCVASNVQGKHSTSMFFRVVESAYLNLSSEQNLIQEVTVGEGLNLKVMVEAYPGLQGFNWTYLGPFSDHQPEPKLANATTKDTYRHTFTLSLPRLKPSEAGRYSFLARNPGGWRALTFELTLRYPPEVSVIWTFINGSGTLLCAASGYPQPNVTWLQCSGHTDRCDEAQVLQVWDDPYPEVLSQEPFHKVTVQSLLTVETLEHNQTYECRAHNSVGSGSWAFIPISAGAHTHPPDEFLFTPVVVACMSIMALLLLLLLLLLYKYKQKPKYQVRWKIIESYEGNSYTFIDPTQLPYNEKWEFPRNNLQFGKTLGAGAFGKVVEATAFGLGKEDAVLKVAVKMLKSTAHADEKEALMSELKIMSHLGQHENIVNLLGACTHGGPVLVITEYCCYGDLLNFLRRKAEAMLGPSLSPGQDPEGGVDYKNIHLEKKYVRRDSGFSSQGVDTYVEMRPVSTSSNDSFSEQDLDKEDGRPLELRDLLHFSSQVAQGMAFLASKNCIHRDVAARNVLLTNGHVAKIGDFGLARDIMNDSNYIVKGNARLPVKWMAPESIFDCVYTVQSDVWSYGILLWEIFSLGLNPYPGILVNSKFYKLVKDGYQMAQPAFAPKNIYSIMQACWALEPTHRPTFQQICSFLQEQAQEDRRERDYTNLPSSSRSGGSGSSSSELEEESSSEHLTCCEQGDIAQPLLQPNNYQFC
Sequence of CYP3A4(BFC) (P08684 whole entry): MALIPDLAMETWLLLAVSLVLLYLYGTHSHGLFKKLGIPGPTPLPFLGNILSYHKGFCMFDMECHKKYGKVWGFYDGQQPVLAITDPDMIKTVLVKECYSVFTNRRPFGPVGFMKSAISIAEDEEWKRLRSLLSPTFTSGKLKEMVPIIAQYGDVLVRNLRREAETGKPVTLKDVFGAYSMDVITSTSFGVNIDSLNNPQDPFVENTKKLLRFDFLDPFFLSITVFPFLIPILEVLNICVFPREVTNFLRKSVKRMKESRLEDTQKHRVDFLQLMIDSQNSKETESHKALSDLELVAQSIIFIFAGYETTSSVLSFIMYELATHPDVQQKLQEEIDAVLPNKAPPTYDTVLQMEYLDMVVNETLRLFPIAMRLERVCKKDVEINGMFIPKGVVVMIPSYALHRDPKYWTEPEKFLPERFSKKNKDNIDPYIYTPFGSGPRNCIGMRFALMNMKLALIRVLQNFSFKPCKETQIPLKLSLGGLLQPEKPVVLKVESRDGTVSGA
Sequence of CYP3A4(BQ) (P08684 whole entry): as above
Sequence of CYP2C9 (P11712 whole entry): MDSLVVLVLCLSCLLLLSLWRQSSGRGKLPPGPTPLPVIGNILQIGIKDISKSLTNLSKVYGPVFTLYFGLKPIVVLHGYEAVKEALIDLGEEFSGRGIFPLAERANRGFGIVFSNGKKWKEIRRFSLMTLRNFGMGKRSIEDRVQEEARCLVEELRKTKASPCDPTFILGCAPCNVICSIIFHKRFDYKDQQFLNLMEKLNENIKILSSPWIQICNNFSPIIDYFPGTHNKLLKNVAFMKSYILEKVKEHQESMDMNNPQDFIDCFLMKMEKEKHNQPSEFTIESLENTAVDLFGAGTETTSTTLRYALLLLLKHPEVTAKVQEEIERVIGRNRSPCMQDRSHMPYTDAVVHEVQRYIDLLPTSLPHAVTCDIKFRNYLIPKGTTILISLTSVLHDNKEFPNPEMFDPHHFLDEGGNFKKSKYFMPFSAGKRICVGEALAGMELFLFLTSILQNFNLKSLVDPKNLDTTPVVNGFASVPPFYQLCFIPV
Sequence of CYP2D6 (P10635 whole entry): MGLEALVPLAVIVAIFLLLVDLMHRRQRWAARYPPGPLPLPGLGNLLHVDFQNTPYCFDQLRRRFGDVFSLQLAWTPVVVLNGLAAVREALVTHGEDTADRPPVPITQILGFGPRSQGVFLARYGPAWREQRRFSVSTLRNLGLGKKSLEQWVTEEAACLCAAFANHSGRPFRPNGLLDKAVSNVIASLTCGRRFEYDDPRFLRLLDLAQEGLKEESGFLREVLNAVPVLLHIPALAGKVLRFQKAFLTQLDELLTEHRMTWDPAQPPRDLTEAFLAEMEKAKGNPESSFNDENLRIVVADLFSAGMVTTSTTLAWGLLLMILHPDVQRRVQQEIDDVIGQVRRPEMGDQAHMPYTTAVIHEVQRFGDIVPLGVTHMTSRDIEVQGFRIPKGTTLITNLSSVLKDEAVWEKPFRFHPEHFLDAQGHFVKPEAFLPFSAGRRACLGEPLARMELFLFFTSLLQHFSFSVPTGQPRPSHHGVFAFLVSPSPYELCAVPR

With `COc1cnc2[nH]cc(Cc3ccc(NCc4cncc(F)c4)nc3F)c2c1` [Compound P-2028, [6-Fluoro-5-(5-methoxy-1H-pyrrolo[2,3-b]pyridin-3-ylmethyl)-pyridin-2-yl]-(5-fluoro-pyridin-3-ylmethyl)-amine], the “Biochemical activity selectivity (Kit IC50/Fms IC50)” value on Fms kinase was more than 20. The IC50 at Fms kinase (setting [1]) was less than 0.1 µM; at c-Kit kinase it was more than 0.1 µM; on CYP2C9 (read-out: Cyp IC50 (μM) 2C9), less than 5 µM; at CYP3A4(BQ) (setting [2]) it was less than 5 µM; on CYP3A4(BFC) (setting [3]), less than 5 µM; at CYP1A2 (human, 15 min), more than 10 µM. Besides, the IC50 at CYP2C19 (read-out: Cyp IC50 (μM) 2C19) is more than 10 µM.
Consider `Cc1cnc2[nH]cc(Cc3ccc(NCc4ccc(C(F)(F)F)nc4)nc3F)c2c1` [Compound P-2031, [6-Fluoro-5-(5-methyl-1H-pyrrolo[2,3-b]pyridin-3-ylmethyl)-pyridin-2-yl]-(6-trifluoromethyl-pyridin-3-ylmethyl)-amine], for which the IC50 was less than 0.1 µM at Fms kinase (setting [4]); less than 0.1 µM at Fms kinase (setting [1]); more than 0.1 µM on c-Kit kinase; less than 5 µM on CYP2C9 (setting [5]); 5 to 10 µM against CYP3A4(BQ); more than 10 µM at CYP2D6. Further, the IC50 at CYP3A4(BFC) was 5 to 10 µM; on CYP1A2 (human, 15 min), more than 10 µM. The “Biochemical activity selectivity (Kit IC50/Fms IC50)” value at Fms kinase was less than 20.
As to `COc1cnc2[nH]cc(Cc3ccc(NCc4ccc(Cl)cc4)nc3F)c2c1` [Compound P-2032, (4-Chloro-benzyl)-[6-fluoro-5-(5-methoxy-1H-pyrrolo[2,3-b]pyridin-3-ylmethyl)-pyridin-2-yl]-amine], the IC50 is less than 0.1 µM on Fms kinase (setting [4]); less than 0.1 µM on Fms kinase (setting [1]); less than 0.1 µM against c-Kit kinase; less than 5 µM against CYP2C9 (setting [5]); more than 10 µM at CYP3A4(BQ) (setting [2]); more than 10 µM at CYP2D6. The IC50 on CYP3A4(BFC) (setting [3]) was more than 10 µM; against CYP1A2, 5 to 10 µM. In addition, the “Biochemical activity selectivity (Kit IC50/Fms IC50)” value on Fms kinase is less than 20.
On to `COc1ccc(CNc2ncc(Cc3c[nH]c4ncc(Cl)cc34)cn2)cn1` [Compound P-2038, [5-(5-Chloro-1H-pyrrolo[2,3-b]pyridin-3-ylmethyl)-pyrimidin-2-yl]-(6-methoxy-pyridin-3-ylmethyl)-amine], for which the half-inhibitory concentration (IC50) was less than 0.1 µM at Fms kinase (setting [4]); less than 0.1 µM on Fms kinase (setting [1]); more than 0.1 µM at c-Kit kinase; 5 to 10 µM on CYP2C9; more than 10 µM at CYP3A4(BQ) (setting [2]); more than 10 µM at CYP3A4(BFC) (setting [3]). The IC50 on CYP1A2 (human, 15 min) was more than 10 µM; on CYP2C19 (read-out: Cyp IC50 (μM) 2C19), more than 10 µM. The “Biochemical activity selectivity (Kit IC50/Fms IC50)” value on Fms kinase was less than 20.
For `COc1ncccc1CNc1ccc(Cc2c[nH]c3ncccc23)c(F)n1` [Compound P-2045, [6-Fluoro-5-(1H-pyrrolo[2,3-b]pyridin-3-ylmethyl)-pyridin-2-yl]-(2-methoxy-pyridin-3-ylmethyl)-amine], the “Biochemical activity selectivity (Kit IC50/Fms IC50)” value at Fms kinase is more than 20. Further, the IC50 is less than 0.1 µM on Fms kinase (setting [1]); more than 0.1 µM on c-Kit kinase; more than 10 µM on CYP2C9 (read-out: Cyp IC50 (μM) 2C9); more than 10 µM at CYP3A4(BQ) (setting [2]); 5 to 10 µM at CYP3A4(BFC); more than 10 µM on CYP1A2 (human, 15 min). This molecule also yielded an IC50 at CYP2C19 of 5 to 10 µM.
Turning to `COc1ncccc1CNc1ccc(Cc2c[nH]c3ncc(C)cc23)c(F)n1` [Compound P-2052, [6-Fluoro-5-(5-methyl-1H-pyrrolo[2,3-b]pyridin-3-ylmethyl)-pyridin-2-yl]-(2-methoxy-pyridin-3-ylmethyl)-amine], the “Biochemical activity selectivity (Kit IC50/Fms IC50)” value at Fms kinase is more than 20. Besides, the IC50 at Fms kinase (setting [1]) was less than 0.1 µM; on c-Kit kinase, more than 0.1 µM; against CYP2C9, 5 to 10 µM; against CYP3A4(BQ), 5 to 10 µM; at CYP2D6 it was more than 10 µM; at CYP3A4(BFC) it was 5 to 10 µM. Besides, the IC50 on CYP1A2 (human, 15 min) was more than 10 µM.
Take `COc1ncc(F)cc1CNc1ncc(Cc2c[nH]c3ncc(Cl)cc23)cn1` [Compound P-2064, [5-(5-Chloro-1H-pyrrolo[2,3-b]pyridin-3-ylmethyl)-pyrimidin-2-yl]-(5-fluoro-2-methoxy-pyridin-3-ylmethyl)-amine]: on Fms kinase, the “Biochemical activity selectivity (Kit IC50/Fms IC50)” value is more than 20. Also, the IC50 at Fms kinase (setting [1]) was less than 0.1 µM; against c-Kit kinase it was more than 0.1 µM; against CYP2C9 it was 5 to 10 µM; on CYP3A4(BQ) (setting [2]) it was more than 10 µM; on CYP2D6 it was more than 10 µM; on CYP3A4(BFC) (setting [3]) it was more than 10 µM. Also, the 50% inhibitory concentration (IC50) against CYP1A2 (human, 15 min) is more than 10 µM.
Regarding `COc1cc(CNc2ccc(Cc3c[nH]c4ncc(C)cc34)c(F)n2)c(F)cn1` [Compound P-2071, (5-Fluoro-2-methoxy-pyridin-4-ylmethyl)-[6-fluoro-5-(5-methyl-1H-pyrrolo[2,3-b]pyridin-3-ylmethyl)-pyridin-2-yl]-amine], the “Biochemical activity selectivity (Kit IC50/Fms IC50)” value on Fms kinase was more than 20. Moreover, the IC50 on Fms kinase (setting [1]) was less than 0.1 µM; against c-Kit kinase it was more than 0.1 µM; at CYP2C9, 5 to 10 µM; against CYP3A4(BQ), 5 to 10 µM; against CYP3A4(BFC), 5 to 10 µM; on CYP1A2 (human, 15 min) it was more than 10 µM. In addition, at CYP2C19 (read-out: Cyp IC50 (μM) 2C19), the IC50 was more than 10 µM.
Regarding `COc1ccc(CNc2ccc(Cc3c[nH]c4ncc(C)cc34)c(F)n2)c(OC)n1` [Compound P-2097, (2,6-Dimethoxy-pyridin-3-ylmethyl)-[6-fluoro-5-(5-methyl-1H-pyrrolo[2,3-b]pyridin-3-ylmethyl)-pyridin-2-yl]-amine], on Fms kinase, the “Biochemical activity selectivity (Kit IC50/Fms IC50)” value is more than 20. The IC50 is less than 0.1 µM at Fms kinase (setting [1]); more than 0.1 µM against c-Kit kinase; less than 5 µM against CYP2C9 (setting [5]); 5 to 10 µM on CYP3A4(BQ); more than 10 µM on CYP2D6; 5 to 10 µM against CYP3A4(BFC). On CYP1A2 (human, 15 min), this molecule displayed an IC50 of more than 10 µM.
`Cn1cc(F)cc(CNc2ncc(Cc3c[nH]c4ncc(Cl)cc34)cn2)c1=O` [Compound P-2157, 3-{[5-(5-Chloro-1H-pyrrolo[2,3-b]pyridin-3-ylmethyl)-pyrimidin-2-ylamino]-methyl}-5-fluoro-1-methyl-1H-pyridin-2-one]: at Fms kinase, the “Biochemical activity selectivity (Kit IC50/Fms IC50)” value is on record as less than 20. Besides, the IC50 at Fms kinase (setting [1]) was more than 0.1 µM; against c-Kit kinase, more than 0.1 µM; at CYP2C9 (setting [5]), more than 10 µM; at CYP3A4(BQ) (setting [2]), more than 10 µM; at CYP2D6 it was more than 10 µM; against CYP3A4(BFC) it was 5 to 10 µM. The IC50 against CYP1A2 (human, 15 min) is more than 10 µM.

Broadly, the IC50 is the concentration that inhibits the measured activity by half.
